We go through two compounds from patent EP0445156B1, “AGENTS FOR TREATING CHRONIC INFLAMMATORY DISEASES OF THE INTESTINES” (HENNING BERLIN GmbH CHEMIE- UND PHARMAWERK, priority 1988, dated 1990).

≈ marks a conversion by molar mass, not a printed value. Read-outs that look alike come from different tables or passages of the source.

The nature of one data set: pH of aqueous solution. The format is physicochemical. The following applies: 5%ige wäßrige Lösung. From the text: Aus der DE-OS 37 07 999 ist bekannt, Oxipurinol zur Verminderung von Zellschäden nach der Ischämie und vor der Reperfusion zu verwenden, und zwar durch intravenöse Verabreichung eines Alkalimetallsalzes, insbesondere des Natriumsalzes. Aus den Beispielen geht jedoch hervor, daß nicht das reine Natriumsalz verwendet wurde, sondern ein Gemisch aus Salz und überschüssiger Natronlauge. Dies ergibt sich vor allem aus den pH-werten der ca. 1 bis 2%-igen Lösungen von 11,5 bzw. 12,0. Das jetzt erstmals von der Anmelderin in reiner und kristalliner Form hergestellte Natriumsalz besitzt in 5%-iger wäßriger Lösung einen pH-wert von 9,7 und kristallisiert als Monohydrat aus.
(§1) Bei diesem Natrium-Salz handelt es sich um Mono-Natriumoxipurinol-Monohydrat. Das Salz ist weiß und kristallisiert in feinen Nadeln. In wäßriger Lösung reagiert es alkalisch, eine 5%ige Lösung besitzt einen pH-Wert von 9,7. Seine Löslichkeit beträgt: in Wasser bei 25°C 15,8 g/l 0°C 7,2 g/l in Methanol/Wasser (3:1 Vol.) bei 25°C ca. 2,0 g/l

A short description of the next data set: Solubility. It counts as physicochemical. To be noted: read-out: Löslichkeit. How it is done:
as §1

Data set [1] in a line: Stability of the solid salt (air, drying temperature). It counts as physicochemical. Here is the method: Das Salz ist luftbeständig und verträgt Trockentemperaturen bis etwa 70°C. Aus seiner heißen Lösung läßt sich mit verdünnter Salzsäure (10%ig) Oxipurinol fast quantitativ ausfällen.
Data set [2] concerns durch TNB (Trinitrobenzoesulfonsäure) ausgelösten Colitis der Ratte. As to the kind of experiment: Histological proof of the anti-inflammatory effect in TNB-induced colitis of the rat. It counts as in vivo. The following applies: 25 mg TNB rektal, 5 mg oral über Schlundsonde im Abstand von 8 Stunden, 3. - 21. Tag, TNB alone: Grad II - III. How it is done:
(§2) Bei 10 Ratten (Körpermaße: 200-250 g) wurde durch rektale Instillation von 25 mg TNB (in 0,25 ml 30%iger ethanolischer Lösung) eine Colitis ausgelöst. Eine in gleicher Weise behandelte Gruppe von 10 Tieren erhielt vom 3. - 21. Tage nach der TNB-Gabe im Abstand von 8 Stunden 5 mg Oxipurinol-Na, das in 0,5 ml Glucoselösung aufgelöst war, oral über eine Schlundsonde verabreicht. Eine weitere Gruppe von 10 Tieren erhielt lediglich 0,25 ml der 30%igen Ethanollösung rektal instilliert, und weitere 10 Tiere dienten als Kontrolle.
Der Darm (Rectum) der mit TNB behandelten Tiere zeigte eine chronisch-rezidivierende Colitis Grad II - III. Bei einigen Tieren wurden inkomplette Erosionen, insbesondere in den über den Lymphfollikeln gelegenen Stellen des Oberflächenepithels, sehr dichte Infiltrate in der Submukosa und reichlich perivaskulär gelegene Mastzellen im umgebenden Fettgewebe, beobachtet. Die mit TNB und Oxipurinol-Na behandelten Tiere zeigten deutlich geringer ausgeprägte Entzündungemerkmale (Grad I): eine geringfügige Vermehrung von Lymphozyten und Mastzellen sowie ein geringes Ödem.

Data set [3] shares this test system. The experiment in a line: Biochemical proof of the anti-inflammatory effect in TNB-induced colitis of the rat (purine nucleotides, TBA-RS in gut samples). It counts as in vivo. The following applies: 21. Tag, 5 mg oral every 8 h, day 3-21. Here is the method: as §2
Bei den im Beispiel 13 charakterisierten Tiergruppen wurden am 21. Tag Darmproben auf den Gehalt an Purinnukleotiden und Lipidperoxydationsprodukten (Thiobarbitursäure-reaktive Substanzen: TBA-RS) hin untersucht.
Die nach TNB-Applikation erhöhte Konzentration von TBA-RS wird durch Oxipurinol-Na-Zugabe auf46 % gesenkt und liegt damit sogar noch unter den Kontrollwerten. Danach verhindert Oxipurinol-Na den durch TNB ausgelösten Abfall der Adenin-'und Guaninnukleotide und die gesteigerte Lipidperoxydation.

The conditions of data set [4]: general statement, no solvent or temperature given; cited from earlier work.

As to `O=c1[nH]c(=O)c2cn[nH]c2[nH]1` [Oxipurinol-Natrium, Mono-Natriumoxipurinol-Monohydrat], the pH-Wert in the data set “pH of aqueous solution” is 9,7. Besides, the solubility in the data set “Solubility” (methanol/water (3:1 vol.), organic solvent or mixture, in Methanol/Wasser (3:1 Vol.) bei 25°C) was roughly 2000 µg/mL (≈ 13.1 mM); in the data set “Solubility” (water, in Wasser bei 0°C) it was 7200 µg/mL (≈ 47.3 mM); in “Solubility” (water, in Wasser bei 25°C) it was 15800 µg/mL (≈ 104 mM). Also, in data set [1], the Luftbeständigkeit result is “luftbeständig”. For the same compound, the “verträgt Trockentemperaturen” value in data set [1] (drying) was no more than 70 °C. In addition, the “Entzündungsmerkmale / Colitis Grad (Rectum, histologisch)” value in data set [2] was “Grad I”. The “Gehalte an Adenin- und Guaninnukleotiden (Darmproben) versus Ethanol- und Kontrollgruppe” value in data set [3] is listed as “unterschieden sich nicht signifikant”.
For `O=c1[nH]c(=O)c2c[nH]nc2[nH]1` [Oxipurinol], in data set [4], the “Löslichkeit (in words)” value was “sehr schwer löslich”.
